This is an account of results in PMC5923120, “Acylhydrazones as Antifungal Agents Targeting the Synthesis of Fungal Sphingolipids” (Antimicrobial Agents and Chemotherapy, 2018).

Like-named read-outs stand apart in the source and are kept apart here.

The test system of one series is Candida albicans A39. As to the kind of experiment: Synergistic assay (FIC), CA. It is filed as cell-based. How it is done: (§1) Synergistic activity was assayed by calculating the fractional inhibitory index (FIC). Briefly, in a 96-well plate, drug A (D13) was serially diluted from 16 to 0.015 μg/ml (11 dilutions), whereas drug B (either fluconazole, amphotericin B, caspofungin, itraconazole, or voriconazole) was serially diluted from 12 to 0.19 μg/ml for fluconazole, 5 to 0.078 μg/ml for amphotericin B, or 8 to 0.007 μg/ml for caspofungin, itraconazole, or voriconazole (seven dilutions). The FIC was defined as (MIC combined/MIC drug A alone) + (MIC combined/MIC drug B alone). Synergism was categorized with the following scale: strongly synergistic effect, FIC of <0.5; synergistic effect, FIC of <1; additive effect, FIC of 1; no effect, FIC between 1 and 2; antagonistic effect, FIC of >2.

Series [1] relates to Cryptococcus neoformans H99. Kind of series: Synergistic assay (FIC), CN. It is filed as cell-based. How it is done: as §1
In a further series the test system is Candida albicans 3022. As to the kind of experiment: Synergistic assay (FIC), CA Flu-R. In kind it is cell-based. How it is done:
as §1

A further series has as its system Candida krusei ATCC 6258. As to the kind of experiment: Synergistic assay (FIC), CK Flu R2. In kind it is cell-based. The following applies: Pichia kudriavzevii, ATCC6258. On the procedure: as §1
In a further series the test system is Aspergillus fumigatus. Kind of series: Mouse model of invasive pulmonary aspergillosis. In kind it is in vivo, mice. Particulars: oral 20 mg/kg/day; for lung fungal burden (CFU) of surviving mice: at the endpoint, data not shown; for mice that survived: immunosuppressed mice, after 15 days. How it is done:
For survival study, 8-week-old CBA/J (Envigo) male mice were used. They were divided into sets of 10 mice for each treatment or control group. The day prior to infection, the mice were immunosuppressed by using triamcinolone acetonide (1 mg/mouse) subcutaneously ([40]). On day 0, mice were infected intranasally with 20 μl of a suspension containing 2 × 10^4 conidia of A. fumigatus strain Af293 and were treated through gavage with 20 mg/kg/day of BHBM, D13, or voriconazole (as a drug control) in a final volume of 100 μl of 30% PEG in saline buffer. The untreated control group mice received 100 μl of 30% PEG in saline buffer. Mice were fed ad libitum and were given 50% grapefruit juice in place of normal drinking water to avoid the liver metabolism of the drugs ([41]). Mice were monitored every day for discomfort and sacrificed subsequently.

In a further series the test system is Candida krusei. As to the kind of experiment: Synergistic assay (FIC), CK Flu R1. In kind it is cell-based. Particulars: Pichia kudriavzevii. How it is done: as §1
The conditions of series [2]: mouse, with NADPH.
Protocol: (§2) To test for metabolic stability, 40 μl of 10 mM NADPH solution was added to each well of a 96-well plate. The final concentration of NADPH was 1 mM. The mixture was prewarmed at 37°C for 5 min. The negative-control samples were prepared by replacing NADPH solutions with 40 μl of ultrapure H2O. The negative control was used to exclude the misleading factor that resulted from the instability of the chemical itself. Samples with NADPH were prepared in duplicate. Negative controls were prepared in singlet. The reaction was started with the addition of 4 μl of 200 μM control compound or test compound solutions. […] An aliquot of 90 μl of the supernatant was mixed with 90 μl of ultrapure H2O and then used for LC-MS/MS analysis.
For the next series, the system named is P. murina. Kind of series: Murine model of pneumocystosis. It is filed as in vivo, mice. The following applies: i.p. 7.2 mg/kg/day. How it is done:
C3H/HeN mice ordered from the National Cancer Institute were infected with P. murina pneumonia through exposure to mice with a fulminant P. murina infection (seed mice). These mice are immune suppressed by the addition of dexamethasone at 4 mg/liter to the drinking water. Sulfuric acid at 1 ml/liter was also added to the drinking water for disinfection. The seed mice were rotated within the cages for 2 weeks and then removed. After the mice had developed a moderate infection level (approximately 5 weeks), the mice were divided into a negative-control group (control steroid), positive-control group (trimethoprim-sulfamethoxazole), and D13 group. Compound was solubilized in DMSO for a stock solution of 50 mg/ml. Compound was refrigerated before and after solubilization. Stock solution was diluted in PBS to a final concentration of 1.8 mg/ml. Mice were intraperitoneally (i.p.) injected with 100 μl of diluted stock for a total dose of approximately 180 μg/day or 7.2 mg/kg/day based on average mouse weights of 25 g. […] Slides were made from the lung homogenates at different dilutions and stained with Diff-Quik to quantify the trophic forms and cresyl echt violet to quantify the asci. Efficacy is based on the reduction of organism burden between the treatment groups and the negative-control group as determined by microscopic evaluation.

The next series is described as follows: in vitro. Particulars: mouse, microsomes; for remaining at 0 h, 2 μM: % remaining at 0 min; for remaining at 0.25 h, 2 μM: % remaining at 15 min; for remaining at 0.5 h, 2 μM: % remaining at 30 min; for remaining at 0.75 h, 2 μM: % remaining at 45 min; for remaining at 1 h, 2 μM: % remaining at 60 min.
A further series can be described thus: Caco-2 permeability. The following applies: human; for Papp A→B at 2 h, 5 μM / Papp B→A at 2 h, 5 μM: Caco-2, pH 7.4.
The conditions of series [3]: human, with NADPH.
Protocol: as §2
Series [4] has as its system Aspergillus fumigatus 293. Kind of series: Synergistic assay (FIC), AF. It is filed as cell-based. How it is done: as §1

Protocol for Caco-2 permeability: The Caco-2 permeability studies were performed as follows. (i) For the preparation of Caco cells, 50-μl and 25-ml volumes of cell culture medium were added to each well of the Transwell insert and reservoir, respectively. The HTS Transwell plates then were incubated at 37°C, 5% CO2 for 1 h before cell seeding. […] (ii) For the preparation of stock solutions, 10 mM stock solutions of test compounds were prepared in DMSO. The stock solutions of positive controls were prepared in DMSO at a concentration of 10 mM. Digoxin and propranolol were used as control compounds in this assay. (iii) For the assessment of cell monolayer integrity, medium was removed from the reservoir and each Transwell insert and replaced with prewarmed fresh culture medium. Transepithelial electrical resistance (TEER) across the monolayer was measured using a Millicell epithelial volt-Ohm measuring system (Millipore, USA). The plate was returned to the incubator once the measurement was done. The TEER value was calculated according to the following equation: TEER measurement (ohms) × area of membrane (cm^2) = TEER value (ohm · cm^2). The TEER value should be greater than 230 Ω · cm^2, which indicates a well-qualified Caco-2 monolayer. (iv) The assay was performed as follows. The Caco-2 plate was removed from the incubator and washed twice with prewarmed Hanks' balanced salt solution (HBSS; with 10 mM HEPES, pH 7.4) and then incubated at 37°C for 30 min. The stock solutions of control compounds were diluted in DMSO to get 1 mM solutions and then diluted with HBSS (10 mM HEPES, pH 7.4) to get 5 μM working solutions. The stock solutions of the test compounds were diluted in DMSO to get 1 mM solutions and then diluted with HBSS (10 mM HEPES, pH 7.4) to get 5 μM working solutions. The final concentration of DMSO in the incubation system was 0.5%. To determine the rate of drug transport in the apical to basolateral direction, 75 μl of 5 μM working solution of test compound was added to the Transwell insert (apical compartment), and the wells in the receiver plate (basolateral compartment) were filled with 235 μl of HBSS (10 mM HEPES, pH 7.4). To determine the rate of drug transport in the basolateral to apical direction, 235 μl of 5 μM working solution of test compound was added to the receiver plate wells (basolateral compartment), and then the Transwell inserts (apical compartment) were filled with 75 μl of HBSS (10 mM HEPES, pH 7.4). Time zero samples were prepared by transferring 50 μl of 5 μM working solution to wells of the 96-deep-well plate, followed by the addition of 200 μl cold acetonitrile or methanol containing appropriate IS. The plates were incubated at 37°C for 2 h. At the end of the incubation, 50-μl samples from donor sides (apical compartment for AP→BL flux and basolateral compartment for BL→AP) and receiver sides (basolateral compartment for AP→BL flux and apical compartment for BL→AP) were transferred to wells of a new 96-well plate, followed by the addition of 4 volumes of cold acetonitrile or methanol containing appropriate IS. […] An aliquot of 100 μl of the supernatant was mixed with an appropriate volume of ultrapure water before LC-MS/MS analysis. To determine the Lucifer yellow leakage after a 2-h transport period, a stock solution of Lucifer yellow was prepared in ultrapure water and diluted with HBSS (10 mM HEPES, pH 7.4) to reach a final concentration of 100 μM. One hundred microliters of the Lucifer yellow solution was added to each Transwell insert (apical compartment), followed by filling the wells in the receiver plate (basolateral compartment) with 300 μl of HBSS (10 mM HEPES, pH 7.4). The plates were incubated at 37°C for 30 min, and 80-μl samples were removed directly from the apical and basolateral wells (using the basolateral access holes) and transferred to wells of new 96-well plates.
Protocol for in vitro: as §2

In general, MIC refers to the smallest concentration in the dilution series that meets the test's criterion for growth inhibition. Usually half-life stands for the time needed for the level to fall by half in the phase considered. In general, microsomal CLint refers to the capacity of the preparation to metabolise the compound, expressed as a volume cleared per time. In general, Papp A→B refers to how fast a substance crosses the layer from the apical side. A lower Papp A→B goes with slow passage. For orientation: Papp B→A means the apparent permeability from the basolateral to the apical side of a cell layer. In general, efflux ratio refers to the permeability from basolateral to apical divided by that in the opposite direction, in the common usage. Take `O=C(N/N=C/c1cc(Br)cc(Br)c1O)c1ccc(Br)cc1` [D13]: the minimal inhibitory concentration (MIC) in the series with Candida albicans A39 was greater than 1 µg/mL; in series [1] it was 0.5 µg/mL; in the series on Candida albicans 3022 (Candida albicans, 3022, CA Flu-R), greater than 1 µg/mL; in the series on Candida krusei ATCC 6258 it was greater than 1 µg/mL; with Candida krusei it was greater than 1 µg/mL; in [4] it was greater than 1 µg/mL. Further, the FIC score with Candida albicans 3022 (D13 combined with itraconazole, C. albicans clinical isolates resistant to fluconazole) was found to be 0.37. Besides, in the series with Aspergillus fumigatus, the “lung fungal burden (CFU) of surviving mice” value is recorded as “only one D13-treated mouse showed evidence of colonies”. In addition, the mice that survived with Aspergillus fumigatus was found to be 80%. Further, the “% remaining at 60 min” value in [2] worked out at 62.25%; in [3] it was 64.95%. Further, the “number of asci or nuclei in lung homogenates” value with P. murina (untreated versus treated mice) is on record as “No differences”. In addition, the survival result in the series on P. murina (versus negative control) was “did not show better survival”. This molecule yielded a half-life at 2 μM in “in vitro” of 88.6 min. The molecule also displayed a microsomal CLint at 2 μM in “in vitro” of 15.7 µL/min/mg. Further, the fraction remaining at 0 h, 2 μM in “in vitro” (with NADPH) and in the series “in vitro” (without NADPH) was 100% each time. Further, the results for the share remaining at 0.25 h, 2 μM in the series “in vitro” (with NADPH) and in “in vitro” (without NADPH) were 80.8% and 90.7%, respectively. Besides, the share remaining at 0.5 h, 2 μM was 69.3% in the series “in vitro” (with NADPH) and 88.1% in “in vitro” (without NADPH). The values for the amount remaining at 0.75 h, 2 μM in “in vitro” (with NADPH) and in “in vitro” (without NADPH) were 64.6% and 82.8%, respectively. Also, the share remaining at 1 h, 2 μM is roughly 60% in the series “in vitro” (with NADPH) and 80.8% in the series “in vitro” (without NADPH). Moreover, the Papp A→B at 2 h, 5 μM in “Caco-2 permeability” stood at 0.13 ×10⁻⁶ cm/s. In the series “Caco-2 permeability”, this molecule yielded a Papp B→A at 2 h, 5 μM of less than 1 ×10⁻⁶ cm/s. In addition, the efflux ratio at 2 h, 5 μM in the series “Caco-2 permeability” (Caco-2, pH 7.4, Efflux ratio) is less than 2. The recovery at 2 h, 5 μM is 49.8% in the series “Caco-2 permeability” (Caco-2, pH 7.4, Recovery AP→BL) and 107% in “Caco-2 permeability” (Caco-2, pH 7.4, Recovery BL→AP).
As to `Cc1ccccc1C(=O)N/N=C/c1cc(Br)ccc1O` [BHBM, (E)-N′-(3-bromo-6-hydroxybenzylidene)-2-methylbenzohydrazide], in the series on Aspergillus fumigatus, the “lung fungal burden (CFU) of surviving mice” value was “showed evidence of colonies” and the mice that survived amounted to 30%. In the series “in vitro”, this molecule came in with a half-life at 2 μM of 7.33 min and an intrinsic clearance (microsomal CLint) at 2 μM of 189 µL/min/mg. Also, in the series “in vitro” (with NADPH), the fraction remaining at 0 h, 2 μM came out at 100%; the fraction remaining at 0.25 h, 2 μM amounted to 25.3%; the share remaining at 0.5 h, 2 μM is 4.93%; the fraction remaining at 0.75 h, 2 μM stood at 1.52%. In “in vitro” (without NADPH), the amount remaining at 0 h, 2 μM is 100%; the fraction remaining at 0.25 h, 2 μM stood at 109%; the share remaining at 0.5 h, 2 μM amounted to 89.9%; the share remaining at 0.75 h, 2 μM was 86.3%. Further, in “in vitro” (without NADPH), the share remaining at 1 h, 2 μM came to 84.1%. Moreover, in the series “Caco-2 permeability”, the Papp A→B at 2 h, 5 μM turned out to be 14.3 ×10⁻⁶ cm/s and the apparent permeability from basolateral to apical (Papp B→A) at 2 h, 5 μM amounted to 4.71 ×10⁻⁶ cm/s. The same molecule came in with a recovery at 2 h, 5 μM in “Caco-2 permeability” (Caco-2, pH 7.4, Recovery AP→BL) of roughly 40%. In the series “Caco-2 permeability” (Caco-2, pH 7.4, Recovery BL→AP), this molecule gave a recovery at 2 h, 5 μM of roughly 40%.
